Activity calls are given as the source filed them. The rule behind the calls is not given here.
Legend:
MGC-803 [1] = assay: Induction of apoptosis in human MGC-803 cells assessed as early apoptotic cells at 0.5 uM after 24 hrs (reference value: 2.9%); format: functional
MGC-803 [2] = assay: Induction of apoptosis in human MGC-803 cells assessed as viable cells at 2 uM after 24 hrs (reference value: 93.6%); format: functional; details: read-out: Activity
MGC-803 [3] = assay: Induction of cell cycle arrest in human MGC-803 cells assessed as accumulation of cells at G1 phase at 0.25 uM for 24 hrs (reference value: 62.6%); format: functional
MGC-803 [4] = assay: Antitumor activity against human MGC-803 cells xenografted in BALB/c nude mice assessed as tumor increment rate at 5 mg/kg, ip measured after 21 days relative to control; format: functional; details: time 21 day
DNA [5] = assay: Induction of DNA damage in human MGC-803 cells assessed as increase in p-CHK2 levels at 0.5 to 1 uM by Western blot analysis; format: cell-based; details: dose 0.5-1 µM
MGC-803 [6] = assay: Induction of cell cycle arrest in human MGC-803 cells assessed as accumulation of cells at G1 phase at 1 uM for 24 hrs (reference value: 62.6%); format: functional
[7] = biological target: T1, DNA topoisomerase 1 (Homo sapiens) (UniProt P11387); assay: Inhibition of topoisomerase 1 (unknown origin) using pBR322 DNA as substrate at 10 uM by gel electrophoresis
T1 sequence (whole entry): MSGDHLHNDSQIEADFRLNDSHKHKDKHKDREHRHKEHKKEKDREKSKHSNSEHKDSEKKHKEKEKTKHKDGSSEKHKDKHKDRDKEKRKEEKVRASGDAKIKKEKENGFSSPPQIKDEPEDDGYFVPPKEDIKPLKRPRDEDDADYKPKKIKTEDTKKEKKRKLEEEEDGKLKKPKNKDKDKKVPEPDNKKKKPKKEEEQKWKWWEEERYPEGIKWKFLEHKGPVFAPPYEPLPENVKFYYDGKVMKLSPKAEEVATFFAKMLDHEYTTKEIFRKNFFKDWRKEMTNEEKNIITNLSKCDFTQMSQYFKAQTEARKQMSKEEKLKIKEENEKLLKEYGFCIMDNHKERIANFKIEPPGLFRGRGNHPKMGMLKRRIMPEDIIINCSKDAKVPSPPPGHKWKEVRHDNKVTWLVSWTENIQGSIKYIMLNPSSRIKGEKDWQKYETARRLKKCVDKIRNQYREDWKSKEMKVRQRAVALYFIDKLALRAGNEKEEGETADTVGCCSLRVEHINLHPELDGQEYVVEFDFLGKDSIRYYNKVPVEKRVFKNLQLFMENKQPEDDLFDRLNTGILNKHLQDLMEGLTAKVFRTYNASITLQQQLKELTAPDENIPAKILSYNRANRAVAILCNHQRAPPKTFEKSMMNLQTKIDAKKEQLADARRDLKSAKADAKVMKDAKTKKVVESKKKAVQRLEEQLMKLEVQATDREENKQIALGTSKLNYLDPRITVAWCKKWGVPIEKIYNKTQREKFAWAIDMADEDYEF

T-24 = assay: Antiproliferative activity against human T-24 cells by MTT assay; format: functional, cell-based
DNA [8] = assay: Induction of DNA damage in human MGC-803 cells assessed as increase in Cdc25A levels at 0.5 to 1 uM by Western blot analysis; format: cell-based; details: dose 0.5-1 µM
MGC-803 [9] = assay: Induction of cell cycle arrest in human MGC-803 cells assessed as accumulation of cells at S phase at 0.25 uM for 24 hrs (Rvb =20.23%); format: functional
DNA [10] = assay: Induction of DNA damage in human MGC-803 cells assessed as increase in p-H2AX levels at 0.5 to 1 uM by Western blot analysis; format: cell-based; details: dose 0.5-1 µM
DNA [11] = assay: Induction of DNA damage in human MGC-803 cells assessed as increase in p-ATM levels at 0.5 to 1 uM by Western blot analysis; format: cell-based; details: dose 0.5-1 µM
MGC-803 [12] = assay: Induction of apoptosis in human MGC-803 cells assessed as increase in Bax expression at 0.5 to 1 uM by Western blot analysis; format: functional, cell-based; details: dose 0.5-1 µM
A549 = assay: cells; details: Homo sapiens
Description: Antiproliferative activity against human A549 cells by MTT assay

[13] = Toxicity in BALB/c nude mouse xenografted with human MGC-803 cells assessed effect on body weight at 5 to 15 mg/kg, ip measured after 21 days; format: organism-based; details: in vivo, 504 h, dose 5-15 mg/kg, time 21 day
[14] = biological target: T1, DNA topoisomerase 1 (Homo sapiens); assay: Inhibition of topoisomerase 1 (unknown origin) using pBR322 DNA as substrate at 20 uM by gel electrophoresis

| inhibition [7] | IC50 (A549) [nM] | inhibition [14] | Compound | Activity (MGC-803 [1]) [%] | viability at 2 µM (MGC-803 [2]) [%] | Activity (MGC-803 [3]) [%] | T/C (MGC-803 [4]) [%] | Activity (DNA [5]) | Activity (MGC-803 [6]) [%] | IC50 (T-24) [nM] | Activity (DNA [8]) | Activity (MGC-803 [9]) [%] | Activity (DNA [10]) | Activity (DNA [11]) | Activity (MGC-803 [12]) | Activity [13] |
| --- | --- | --- | --- | --- | --- | --- | --- | --- | --- | --- | --- | --- | --- | --- | --- | --- |
| Active | 410 | – | CN(C)CCN1C(=O)c2cccc3c(N4CCN(C(=O)c5ccccc5)CC4)c([N+](=O)[O-])cc(c23)C1=O | 10.1 | 41.9 | 50.91 | 59.8 | Active | 27.92 | 420 | Active | 37.8 | Active | Active | Active | Non-Toxic |
| – | 270 | Active | Cc1ccc(S(=O)(=O)N2CCN(c3c([N+](=O)[O-])cc4c5c(cccc35)C(=O)N(CCN(C)C)C4=O)CC2)cc1 | 9.7 | 66.9 | 53.73 | 52 | Active | 24.82 | 330 | Active | 40.4 | Active | Active | Active | Non-Toxic |

Source: ChEMBL document CHEMBL4732079, “Design, synthesis and antitumor evaluation of new 1,8-naphthalimide derivatives targeting nuclear DNA” (Eur J Med Chem, 2021)
